Measured values published in patent publication US20230203041A1, “ANTAGONISTS OF THE ADENOSINE A2A RECEPTOR” (AdoRx Therapeutics Limited, priority 2020, published 2023).
pKi: −log10 of the molar value. Counter-ions that a name gives are not always drawn.

Legend:
[1] = target: T1, human Adenosine A1 receptor (Homo sapiens, UniProt P30542); assay: Adenosine receptor TR-FRET binding assay (CA200645 displacement), A1
T1 sequence (P30542 1-326): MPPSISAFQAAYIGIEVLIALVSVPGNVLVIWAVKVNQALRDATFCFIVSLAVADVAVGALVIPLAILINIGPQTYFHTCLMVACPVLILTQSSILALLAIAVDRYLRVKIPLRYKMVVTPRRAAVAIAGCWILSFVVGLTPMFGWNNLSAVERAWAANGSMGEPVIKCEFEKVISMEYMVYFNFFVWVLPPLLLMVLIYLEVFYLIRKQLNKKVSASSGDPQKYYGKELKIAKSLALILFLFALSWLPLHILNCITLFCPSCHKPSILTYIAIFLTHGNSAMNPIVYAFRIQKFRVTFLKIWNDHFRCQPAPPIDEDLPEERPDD

[2] = target: T2, human Adenosine A3 receptor (Homo sapiens, UniProt P0DMS8); assay: Adenosine receptor TR-FRET binding assay (CA200645 displacement), A3
T2 sequence (P0DMS8 1-318): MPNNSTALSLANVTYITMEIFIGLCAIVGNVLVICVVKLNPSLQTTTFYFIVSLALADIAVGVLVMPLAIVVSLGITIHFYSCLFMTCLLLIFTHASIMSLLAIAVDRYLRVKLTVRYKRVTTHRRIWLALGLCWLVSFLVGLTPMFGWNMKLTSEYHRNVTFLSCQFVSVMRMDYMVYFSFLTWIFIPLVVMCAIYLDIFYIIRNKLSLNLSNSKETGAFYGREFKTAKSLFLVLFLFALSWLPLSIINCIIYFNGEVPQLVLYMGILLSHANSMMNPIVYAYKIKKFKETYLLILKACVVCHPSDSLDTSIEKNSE
Description: (§1) All FRET binding experiments were conducted at room temperature in white 384-well plates, in assay binding buffer containing 1×LabMed (Cisbio, France), 100 μg/mL saponin, 1% DMSO and 0.02% pluronic acid. Binding of the fluorescently labelled Adenosine receptor antagonist XAC (CA200645, FRET acceptor) to terbium-labelled A1, A2a, A2b and A3 adenosine receptors (FRET donors) was detected by time-resolved FRET due to the close proximity of the donor and acceptor in a binding event. To investigate the ability of unlabelled test compounds to bind to Adenosine A1, A2a, A2b and A3 receptors, dose response curves were constructed that determined the ability of a range of concentrations to inhibit the binding of 30 nM CA200645 to the A2b receptor and 100 nM CA200645 to the A1, A2a, and A3 receptor.
(§2) Serial dilution (1:3 dilutions) of test compounds in neat DMSO and transfer of a 400 nL sample of test compound into the assay plate was carried out using the Mosquito (TTP Labtech, UK). The compound samples were incubated for 2 hours at room temperature with a fixed concentration of CA200645 defined for each receptor (see above) and CHO cell membranes containing the human Adenosine A1 (0.5 μg/well), A2a (0.3 μg/well), A2b (1 μg/well) or A3 (1 μg/well) receptor in 40 μL of assay buffer. Total and non-specific binding of CA200645 was determined in the absence and presence of 10 μM XAC, respectively. Following 2 hours incubation, the level of CA200645 binding was detected on a Pherastar FSX (BMG Labtech, Germany) using standard TR-FRET settings. The terbium donor was excited with three laser flashes at a wavelength of 337 nm, and donor and acceptor emission was detected at 620 nm and 665 nm wavelengths, respectively. FRET ratios were obtained by multiplying the acceptor/donor ratio value by 10,000. Specific binding was determined by subtracting the non-specific binding FRET ratio from the total binding FRET ratio. Compound IC50 curves were analysed using GraphPad Prism 7.0 (GraphPad, USA) and Ki affinity values were determined from the obtained IC50 values using the method of Cheng and Prusoff.

[3] = target: T3, human Adenosine A2a receptor (Homo sapiens, UniProt P29274); assay: Adenosine receptor TR-FRET binding assay (CA200645 displacement), A2a; conditions: 100 nM CA200645, CHO cell membranes, 2 hours at room temperature
T3 construct: expressed in transfected cells; host or cells: CHO cell membranes
Description: as §1, §2

[4] = target: T4, human Adenosine A2b receptor (Homo sapiens, UniProt P29275); assay: Adenosine receptor TR-FRET binding assay (CA200645 displacement), A2b; conditions: 30 nM CA200645, CHO cell membranes, 2 hours at room temperature
T4 construct: expressed in transfected cells; host or cells: CHO cell membranes
T4 sequence (P29275 1-332): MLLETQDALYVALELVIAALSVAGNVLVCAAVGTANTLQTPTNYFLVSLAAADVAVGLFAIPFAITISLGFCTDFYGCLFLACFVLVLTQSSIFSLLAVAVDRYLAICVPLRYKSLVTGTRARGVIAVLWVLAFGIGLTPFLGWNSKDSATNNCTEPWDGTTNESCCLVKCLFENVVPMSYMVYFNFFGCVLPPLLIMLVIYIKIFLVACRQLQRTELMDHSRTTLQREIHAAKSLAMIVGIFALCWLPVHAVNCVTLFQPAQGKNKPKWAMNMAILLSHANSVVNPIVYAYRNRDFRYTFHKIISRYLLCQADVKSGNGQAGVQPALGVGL

T3 sequence (P29274 whole entry): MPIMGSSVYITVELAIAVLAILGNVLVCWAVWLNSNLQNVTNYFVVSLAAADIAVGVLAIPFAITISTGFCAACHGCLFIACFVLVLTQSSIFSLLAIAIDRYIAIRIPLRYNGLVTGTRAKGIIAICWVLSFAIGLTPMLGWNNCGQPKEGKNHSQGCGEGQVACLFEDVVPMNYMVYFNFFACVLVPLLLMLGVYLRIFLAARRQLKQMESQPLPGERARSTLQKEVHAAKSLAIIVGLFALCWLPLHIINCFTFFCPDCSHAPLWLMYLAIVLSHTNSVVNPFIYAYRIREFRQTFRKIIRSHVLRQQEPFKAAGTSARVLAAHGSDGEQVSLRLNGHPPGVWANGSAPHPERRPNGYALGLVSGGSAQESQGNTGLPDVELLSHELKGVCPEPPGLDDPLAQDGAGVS

SMILES	pKi [1]	pKi [2]	pKi [3]	pKi [4]
Cn1ccnc1CN1CCN(c2ccn3nc(-c4ccco4)c(C#N)c3n2)CC1 [Example 51.2, 2-(2-Furyl)-5-[4-[(1-methylimidazol-2-yl)methyl]piperazin-1-yl]pyrazolo [1,5-a]pyrimidine-3-carbonitrile]	6.98	< 6.00	7.26	–
Ic1c(-c2ccco2)nn2ccc(NCc3ccccc3)nc12 [Example 77, N-Benzyl-2-(2-furyl)-3-iodo-pyrazolo[1,5-a]pyrimidin-5-amine]	5.84	6.87	7.33	–
N#Cc1c(-c2ccco2)nn2ccc(N3CCN(CCF)CC3)nc12 [Example 37.3]	6.58	< 6.00	7.65	–
N#Cc1c(-c2cnco2)nn2ccc(N3CCN(CCF)CC3)nc12 [Example 62, 5-[4-(2-Fluoroethyl)piperazin-1-yl]-2-oxazol-5-yl-pyrazolo[1,5-a]pyrimidine-3-carbonitrile]	–	< 6.00	6.44	–
CN(C)C1CN(c2ccn3nc(-c4ccco4)c(C(N)=O)c3n2)C1 [Example 39.1, 5-[3-(Dimethylamino)azetidin-1-yl]-2-(2-furyl)pyrazolo[1,5-a]pyrimidine-3-carboxamide]	5.87	< 6.00	6.90	–
Fc1cccc(-c2cc3nc(NCCN4Cc5ccccc5C4)ccn3n2)c1 [Example 66.4, 2-(3-Fluorophenyl)-N-(2-isoindolin-2-ylethyl)pyrazolo[1,5-a]pyrimidin-5-amine]	6.10	5.54	6.15	–
COC(=O)/C=C/c1c(-c2ccco2)nn2ccc(NCc3ccccc3)nc12 [Example 54, Methyl (E)-3-[5-(benzylamino)-2-(2-furyl)pyrazolo[1,5-a]pyrimidin-3-yl]prop-2-enoate]	7.74	7.17	7.46	–
CN1CCC[C@@H]1CNc1ccn2nc(-c3ccco3)c(C#N)c2n1 [Example 81, 2-(2-Furyl)-5-[[(2R)-1-methylpyrrolidin-2-yl]methylamino]pyrazolo[1,5-a]pyrimidine-3-carbonitrile]	5.90	< 6.00	6.70	–
C[C@@H]1CN(c2ccn3nc(-c4ccco4)c(C#N)c3n2)CCN1 [Example 82, 2-(2-Furyl)-5-[(3R)-3-methylpiperazin-1-yl]pyrazolo[1,5-a]pyrimidine-3-carbonitrile hydrochloride]	5.36	< 6.00	6.18	–
C[C@H]1CN(c2ccn3nc(-c4ccco4)c(C#N)c3n2)CCN1C(=O)OC(C)(C)C [Example 37.11]	5.66	5.57	6.77	–
CC(C)(O)CNC(=O)c1ccn2nc(-c3cccc(C#N)c3)c(C#N)c2n1 [Example 14, 3-Cyano-2-(3-cyanophenyl)-N-(2-hydroxy-2-methyl-propyl)pyrazolo[1,5-a]pyrimidine-5-carboxamide]	–	< 6.00	6.66	–
CC(C)(C)OC(=O)N1CCC[C@@H]1CNc1ccn2nc(-c3ccco3)c(C#N)c2n1 [Example 37.2, tert-butyl (2R)-2-[[[3-cyano-2-(2-furyl)pyrazolo[1,5-a]pyrimidin-5-yl]amino]methyl]pyrrolidine-1-carboxylate]	6.99	5.71	7.72	–
Nc1ccn2nc(-c3ccco3)c(Br)c2n1 [Example 50, 3-Bromo-2-(2-furyl)pyrazolo[1,5-a]pyrimidin-5-amine]	6.34	5.51	6.82	–
N#Cc1c(-c2ccc(F)cc2)nn2ccc(NCc3ccccc3)nc12 [Example 63, 5-(Benzylamino)-2-(4-fluorophenyl)pyrazolo[1,5-a]pyrimidine-3-carbonitrile]	7.62	7.19	7.31	–
Cc1cccnc1CN1CCN(c2ccn3nc(-c4cnco4)c(C#N)c3n2)CC1 [Example 65, 5-[4-[(3-Methyl-2-pyridyl)methyl]piperazin-1-yl]-2-oxazol-5-yl-pyrazolo[1,5-a]pyrimidine-3-carbonitrile]	5.61	< 6.00	6.39	–
CC(C)(O)CNC(=O)c1ccn2nc(-c3cccc(C#N)c3)c(-c3ccncn3)c2n1 [Example 13, 2-(3-Cyanophenyl)-N-(2-hydroxy-2-methyl-propyl)-3-pyrimidin-4-yl-pyrazolo[1,5-a]pyrimidine-5-carboxamide]	–	< 6.00	7.17	–
Cc1cccnc1CN1CCN(c2ccn3nc(-c4cccc(C#N)c4)c(C#N)c3n2)CC1 [Example 59, 2-(3-Cyanophenyl)-5-[4-[(3-methyl-2-pyridyl)methyl]piperazin-1-yl]pyrazolo[1,5-a]pyrimidine-3-carbonitrile]	5.99	5.43	7.76	–
Fc1cccc(-c2nn3ccc(Cl)nc3c2Br)c1 [Example 68, 3-Bromo-5-chloro-2-(3-fluorophenyl)pyrazolo[1,5-a]pyrimidine]	–	< 6.00	6.24	–
CC(C)(C)OC(=O)N1CCC(c2ccn3nc(-c4ccco4)c(C#N)c3n2)CC1 [Example 83, Tert-butyl 4-[3-cyano-2-(2-furyl)pyrazolo[1,5-a]pyrimidin-5-yl]piperidine-1-carboxylate]	–	< 6.00	6.16	–
N#Cc1c(-c2ccco2)nn2ccc(N3CCN(CCc4ccccc4)CC3)nc12 [Example 37.6]	6.44	< 6.00	7.34	–
N#Cc1cccc(-c2nn3ccc(NCCN4CCN(c5ccccc5)CC4)nc3c2C#N)c1 [Example 87.1, 2-(3-Cyanophenyl)-5-[2-(4-phenylpiperazin-1-yl)ethylamino]pyrazolo [1,5-a]pyrimidine-3-carbonitrile]	6.67	< 6.00	7.79	–
N#Cc1c(-c2ccco2)nn2ccc(N3CCN(CCO)CC3)nc12 [Example 52, 2-(2-Furyl)-5-[4-(2-hydroxyethyl)piperazin-1-yl]pyrazolo[1,5-a]pyrimidine-3-carbonitrile]	5.94	< 6.00	6.94	–
c1ccc(CNc2ncn3nc(-c4ccco4)cc3n2)cc1 [Example 84, N-Benzyl-7-(2-furyl)pyrazolo[1,5-a][1,3,5]triazin-2-amine]	6.41	6.64	6.80	–
N#Cc1c(-c2cccc(F)c2)nn2ccc(N3CCN(CCF)CC3)nc12 [Example 61, 5-[4-(2-Fluoroethyl)piperazin-1-yl]-2-(3-fluorophenyl)pyrazolo[1,5-a]pyrimidine-3-carbonitrile]	7.38	5.31	7.42	–
N#Cc1c(-c2ccco2)nn2ccc(N3CCN(Cc4ccccn4)CC3)nc12 [Example 37.7]	6.81	5.11	7.31	–
CN1CCN(c2ccn3nc(-c4ccco4)c(C#N)c3n2)CC1 [Example 37.8]	6.37	< 6.00	7.20	–
O=C(O)/C=C/c1c(-c2ccco2)nn2ccc(NCc3ccccc3)nc12 [Example 54.1, (E)-3-[5-(Benzylamino)-2-(2-furyl)pyrazolo[1,5-a]pyrimidin-3-yl]prop-2-enoic acid]	6.07	5.21	6.99	–
NC(=O)c1c(-c2ccco2)nn2ccc(N3CCN(CCF)CC3)nc12 [Example 39, 5-[4-(2-Fluoroethyl)piperazin-1-yl]-2-(2-furyl)pyrazolo[1,5-a]pyrimidine-3-carboxamide]	5.59	< 6.00	7.41	–
O=C(NCc1ccccc1)c1ccn2nc(-c3ccco3)cc2n1 [Example 85, N-Benzyl-2-(2-furyl)pyrazolo[1,5-a]pyrimidine-5-carboxamide]	6.44	< 6.00	6.31	–
CCn1nc(C)cc1-c1c(-c2cccc(C#N)c2)nn2ccc(C(=O)NCC(C)(C)O)nc12 [Example 12.1, 2-(3-Cyanophenyl)-3-(2-ethyl-5-methyl-pyrazol-3-yl)-N-(2-hydroxy-2-methyl-propyl)pyrazolo[1,5-a]pyrimidine-5-carboxamide]	–	–	–	5.80
